# The kinase profiling compilation of Christmann-Franck et al. (2016)
# Key:
# Assay in all cases: KINOMEscan competition binding
# Details in all cases: compound 10.0 µM
# [1] = test system: FLT3 (human), P36888 [K663Q]
# CAMK2A (human) = CAMK2A (human) (UniProt Q9UQM7)
# DCLK3 (human) = DCLK3 (human) (UniProt Q9C098)
# DYRK1B (human) = DYRK1B (human) (UniProt Q9Y463)
# ULK2 (human) = ULK2 (human) (UniProt Q8IYT8)
# CAMK2B (human) = CAMK2B (human) (UniProt Q13554)
# TNK2 (human) = TNK2 (human) (UniProt Q07912)
# CLK1 (human) = CLK1 (human) (UniProt P49759)
# TNK1 (human) = TNK1 (human) (UniProt Q13470)
# [2] = test system: FLT3 (human), P36888 [D835H]
# [3] = test system: FLT3 (human), P36888 [ITD]
# [4] = test system: FLT3 (human), P36888 [N841I]
# [5] = test system: ABL1 (human), P00519 [F317L]
# GAK (human) = GAK (human) (UniProt O14976)
# MYLK4 (human) = MYLK4 (human) (UniProt Q86YV6)
# DCLK2 (human) = DCLK2 (human) (UniProt Q8N568)
# [6] = test system: ABL1 (human), P00519 [F317I]
# MAPK7 (human) = MAPK7 (human) (UniProt Q13164)
# FRK (human) = FRK (human) (UniProt P42685)
# ALK (human) = ALK (human) (UniProt Q9UM73)
# PHKG1 (human) = PHKG1 (human) (UniProt Q16816)
# CAMK2G (human) = CAMK2G (human) (UniProt Q13555)
# FLT3 (human) = FLT3 (human) (UniProt P36888)
# MKNK2 (human) = MKNK2 (human) (UniProt Q9HBH9)
# [7] = test system: FLT3 (human), P36888 [D835Y]
# CAMK2D (human) = CAMK2D (human) (UniProt Q13557)
# PTK6 (human) = PTK6 (human) (UniProt Q13882)
# DCLK1 (human) = DCLK1 (human) (UniProt O15075)
# TTK (human) = TTK (human) (UniProt P33981)
# CLK4 (human) = CLK4 (human) (UniProt Q9HAZ1)
# STK10 (human) = STK10 (human) (UniProt O94804)
# PTK2B (human) = PTK2B (human) (UniProt Q14289)
# PTK2 (human) = PTK2 (human) (UniProt Q05397)
# RPS6KA6 KD2 (human) = RPS6KA6 KD2 (human) (UniProt Q9UK32)
# [8] = test system: EGFR (human), P00533 [A750P; 747-749 del]
# [9] = test system: EGFR (human), P00533 [747-751 del / S ins]
# DAPK3 (human) = DAPK3 (human) (UniProt O43293)
# [10] = test system: EGFR (human), P00533 [G719C; 746-750 del]
# SLK (human) = SLK (human) (UniProt Q9H2G2)
# SIK1 (human) = SIK1 (human) (UniProt P57059)
# [11] = test system: EGFR (human), P00533 [P753S; 747-752 del]
# PLK1 (human) = PLK1 (human) (UniProt P53350)
# PLK3 (human) = PLK3 (human) (UniProt Q9H4B4)
# PDGFRB (human) = PDGFRB (human) (UniProt P09619)
# [12] = test system: KIT (human), P10721 [V559D]
# KIT (human) = KIT (human) (UniProt P10721)
# TIE1 (human) = TIE1 (human) (UniProt P35590)
# DDR1 (human) = DDR1 (human) (UniProt Q08345)
# Chain of ABL1 (human), P00519 [F317L] (P00519 whole entry F317L, looked up): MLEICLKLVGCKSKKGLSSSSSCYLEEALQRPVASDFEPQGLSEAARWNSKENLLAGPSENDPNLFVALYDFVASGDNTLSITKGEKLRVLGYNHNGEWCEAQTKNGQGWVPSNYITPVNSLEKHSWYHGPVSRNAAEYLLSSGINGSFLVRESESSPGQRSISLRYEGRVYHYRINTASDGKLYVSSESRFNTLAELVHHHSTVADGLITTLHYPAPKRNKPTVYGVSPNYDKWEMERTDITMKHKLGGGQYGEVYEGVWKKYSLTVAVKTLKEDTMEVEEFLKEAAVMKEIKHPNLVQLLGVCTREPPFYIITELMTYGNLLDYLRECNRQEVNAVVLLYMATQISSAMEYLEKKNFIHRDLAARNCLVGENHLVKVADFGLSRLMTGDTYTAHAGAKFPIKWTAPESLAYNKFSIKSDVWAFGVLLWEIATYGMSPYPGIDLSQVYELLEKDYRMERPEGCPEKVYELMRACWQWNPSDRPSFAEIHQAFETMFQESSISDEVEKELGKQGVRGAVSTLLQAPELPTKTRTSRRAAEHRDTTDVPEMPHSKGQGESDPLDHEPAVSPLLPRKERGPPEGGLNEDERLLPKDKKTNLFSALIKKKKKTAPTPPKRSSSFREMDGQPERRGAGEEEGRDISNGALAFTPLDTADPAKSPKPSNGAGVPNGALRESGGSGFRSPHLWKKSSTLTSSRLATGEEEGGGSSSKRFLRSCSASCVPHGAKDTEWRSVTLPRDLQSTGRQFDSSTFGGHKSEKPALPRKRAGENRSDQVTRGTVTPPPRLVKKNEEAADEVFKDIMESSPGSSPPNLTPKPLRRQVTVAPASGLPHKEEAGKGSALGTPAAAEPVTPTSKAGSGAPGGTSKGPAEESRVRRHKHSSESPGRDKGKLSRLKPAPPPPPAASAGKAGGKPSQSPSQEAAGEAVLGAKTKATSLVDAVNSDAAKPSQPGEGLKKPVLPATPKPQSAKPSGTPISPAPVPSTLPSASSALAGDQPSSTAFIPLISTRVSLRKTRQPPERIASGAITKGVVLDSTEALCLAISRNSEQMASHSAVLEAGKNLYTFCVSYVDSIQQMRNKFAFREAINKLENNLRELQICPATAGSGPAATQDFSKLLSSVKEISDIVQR
# Chain of STK10 (human) (O94804 whole entry, looked up): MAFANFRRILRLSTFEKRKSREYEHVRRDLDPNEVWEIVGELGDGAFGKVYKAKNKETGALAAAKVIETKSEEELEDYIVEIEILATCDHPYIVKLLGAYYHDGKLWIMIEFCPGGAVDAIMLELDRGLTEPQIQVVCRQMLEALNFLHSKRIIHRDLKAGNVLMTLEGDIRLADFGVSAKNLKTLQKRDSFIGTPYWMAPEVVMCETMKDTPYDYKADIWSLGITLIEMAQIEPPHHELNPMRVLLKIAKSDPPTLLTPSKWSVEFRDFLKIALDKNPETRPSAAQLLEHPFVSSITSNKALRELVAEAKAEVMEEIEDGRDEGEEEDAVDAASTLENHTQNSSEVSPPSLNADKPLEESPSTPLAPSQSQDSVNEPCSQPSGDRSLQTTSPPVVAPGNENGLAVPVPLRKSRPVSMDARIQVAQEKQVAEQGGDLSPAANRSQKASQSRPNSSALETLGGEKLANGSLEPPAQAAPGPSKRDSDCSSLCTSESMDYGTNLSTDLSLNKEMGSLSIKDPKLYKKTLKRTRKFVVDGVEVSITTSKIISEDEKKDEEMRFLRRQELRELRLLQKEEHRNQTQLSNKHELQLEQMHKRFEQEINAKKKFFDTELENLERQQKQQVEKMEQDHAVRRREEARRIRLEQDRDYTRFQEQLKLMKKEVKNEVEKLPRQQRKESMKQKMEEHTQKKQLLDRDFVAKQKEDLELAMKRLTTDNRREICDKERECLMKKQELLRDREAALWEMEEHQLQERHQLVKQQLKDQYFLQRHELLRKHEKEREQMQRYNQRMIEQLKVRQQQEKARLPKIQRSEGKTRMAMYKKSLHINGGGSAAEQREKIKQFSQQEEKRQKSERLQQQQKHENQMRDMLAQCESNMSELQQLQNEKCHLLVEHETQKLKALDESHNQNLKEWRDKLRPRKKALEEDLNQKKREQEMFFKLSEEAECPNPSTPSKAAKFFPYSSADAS
# Chain of TNK2 (human) (Q07912 whole entry, looked up): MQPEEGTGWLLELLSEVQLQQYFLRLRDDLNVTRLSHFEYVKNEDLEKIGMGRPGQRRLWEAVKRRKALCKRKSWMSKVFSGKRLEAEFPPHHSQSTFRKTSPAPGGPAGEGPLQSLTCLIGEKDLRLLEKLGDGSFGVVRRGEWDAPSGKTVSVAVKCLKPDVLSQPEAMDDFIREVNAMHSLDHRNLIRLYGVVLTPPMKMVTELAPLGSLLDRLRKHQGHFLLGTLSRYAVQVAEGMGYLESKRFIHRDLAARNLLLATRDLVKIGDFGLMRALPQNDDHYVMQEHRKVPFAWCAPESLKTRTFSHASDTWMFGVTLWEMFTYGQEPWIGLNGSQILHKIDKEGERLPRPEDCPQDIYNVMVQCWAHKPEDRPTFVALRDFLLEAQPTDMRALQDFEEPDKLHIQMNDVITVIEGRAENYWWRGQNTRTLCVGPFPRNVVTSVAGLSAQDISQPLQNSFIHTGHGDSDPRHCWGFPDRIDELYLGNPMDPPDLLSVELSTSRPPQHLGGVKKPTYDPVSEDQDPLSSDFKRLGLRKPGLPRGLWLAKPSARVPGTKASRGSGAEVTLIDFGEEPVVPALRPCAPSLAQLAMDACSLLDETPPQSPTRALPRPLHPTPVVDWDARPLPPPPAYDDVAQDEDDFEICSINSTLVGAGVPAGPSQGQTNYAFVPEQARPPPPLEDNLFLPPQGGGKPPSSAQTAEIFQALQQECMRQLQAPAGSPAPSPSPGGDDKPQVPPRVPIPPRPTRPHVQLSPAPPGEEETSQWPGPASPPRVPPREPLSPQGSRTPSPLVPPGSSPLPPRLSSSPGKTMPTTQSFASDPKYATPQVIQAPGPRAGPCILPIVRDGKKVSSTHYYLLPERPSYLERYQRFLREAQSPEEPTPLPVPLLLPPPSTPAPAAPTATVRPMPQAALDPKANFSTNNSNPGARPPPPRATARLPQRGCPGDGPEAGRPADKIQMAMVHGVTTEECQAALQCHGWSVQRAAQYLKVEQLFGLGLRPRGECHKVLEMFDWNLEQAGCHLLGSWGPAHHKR
# Chain of GAK (human) (O14976 whole entry, looked up): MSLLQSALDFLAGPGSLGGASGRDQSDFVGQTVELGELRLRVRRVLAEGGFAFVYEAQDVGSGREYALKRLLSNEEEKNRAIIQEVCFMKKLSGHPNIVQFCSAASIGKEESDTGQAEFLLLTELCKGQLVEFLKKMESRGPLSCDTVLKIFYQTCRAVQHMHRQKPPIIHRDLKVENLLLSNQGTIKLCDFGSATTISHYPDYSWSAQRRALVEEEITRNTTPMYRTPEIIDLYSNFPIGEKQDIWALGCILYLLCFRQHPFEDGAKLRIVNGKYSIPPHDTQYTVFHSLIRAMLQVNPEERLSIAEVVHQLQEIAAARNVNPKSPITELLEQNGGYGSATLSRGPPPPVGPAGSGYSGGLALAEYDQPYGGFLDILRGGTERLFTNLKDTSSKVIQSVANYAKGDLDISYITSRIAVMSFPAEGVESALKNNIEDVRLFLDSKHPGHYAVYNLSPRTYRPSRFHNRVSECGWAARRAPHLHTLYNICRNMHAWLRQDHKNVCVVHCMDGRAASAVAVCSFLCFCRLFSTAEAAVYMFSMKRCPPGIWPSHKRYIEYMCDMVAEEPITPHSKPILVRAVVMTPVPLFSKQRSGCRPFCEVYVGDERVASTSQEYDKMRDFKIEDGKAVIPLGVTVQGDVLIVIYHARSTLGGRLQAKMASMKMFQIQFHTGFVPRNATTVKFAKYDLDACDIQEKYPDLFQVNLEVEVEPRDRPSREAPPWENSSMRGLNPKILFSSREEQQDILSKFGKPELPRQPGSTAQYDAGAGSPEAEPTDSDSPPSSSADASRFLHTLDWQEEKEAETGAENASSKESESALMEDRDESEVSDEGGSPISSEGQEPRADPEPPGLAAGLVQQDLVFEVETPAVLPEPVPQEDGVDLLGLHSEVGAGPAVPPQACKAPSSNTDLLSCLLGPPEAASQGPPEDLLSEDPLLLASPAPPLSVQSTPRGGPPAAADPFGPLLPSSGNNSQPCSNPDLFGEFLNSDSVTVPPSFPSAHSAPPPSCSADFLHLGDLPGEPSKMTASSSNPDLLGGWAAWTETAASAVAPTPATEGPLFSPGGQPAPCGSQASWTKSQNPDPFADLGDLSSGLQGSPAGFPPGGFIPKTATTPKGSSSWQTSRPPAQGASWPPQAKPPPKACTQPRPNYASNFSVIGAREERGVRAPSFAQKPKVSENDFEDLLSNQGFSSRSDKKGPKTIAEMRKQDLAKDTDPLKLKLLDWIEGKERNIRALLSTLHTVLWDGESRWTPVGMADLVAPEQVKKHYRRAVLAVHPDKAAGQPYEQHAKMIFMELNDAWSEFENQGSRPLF
# Chain of FRK (human) (P42685 whole entry, looked up): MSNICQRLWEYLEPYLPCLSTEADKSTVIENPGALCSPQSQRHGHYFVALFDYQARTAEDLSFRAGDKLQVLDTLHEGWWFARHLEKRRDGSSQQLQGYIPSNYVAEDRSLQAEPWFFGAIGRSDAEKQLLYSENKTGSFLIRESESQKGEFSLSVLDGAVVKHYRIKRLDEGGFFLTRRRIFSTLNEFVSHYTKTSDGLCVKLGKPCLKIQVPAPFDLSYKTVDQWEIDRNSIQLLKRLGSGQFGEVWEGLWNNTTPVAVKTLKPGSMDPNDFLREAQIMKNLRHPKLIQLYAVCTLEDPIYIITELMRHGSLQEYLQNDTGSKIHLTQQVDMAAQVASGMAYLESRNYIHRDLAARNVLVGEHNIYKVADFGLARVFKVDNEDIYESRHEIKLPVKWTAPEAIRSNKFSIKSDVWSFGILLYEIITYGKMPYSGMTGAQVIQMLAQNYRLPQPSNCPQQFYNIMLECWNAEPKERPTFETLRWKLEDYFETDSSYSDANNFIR
# Chain of ABL1 (human), P00519 [F317I] (P00519 whole entry F317I, looked up): as the sequence (P00519 whole entry F317L, looked up) above, with L317I counted along it
smiles,measurement,setting,value
COc1cc(N2CCN(C)CC2)ccc1Nc1ncc2c(n1)N(C(C)C)c1ccccc1C(=O)N2,"kinase still bound, per cent of control",[1],13%
same,"kinase still bound, per cent of control",CAMK2A (human),5.4%
same,"kinase still bound, per cent of control",DCLK3 (human),11%
same,"kinase still bound, per cent of control",DYRK1B (human),12%
same,"kinase still bound, per cent of control",ULK2 (human),27%
same,"kinase still bound, per cent of control",CAMK2B (human),21%
same,"kinase still bound, per cent of control",TNK2 (human),8.4%
same,"kinase still bound, per cent of control",CLK1 (human),27%
same,"kinase still bound, per cent of control",TNK1 (human),10%
same,"kinase still bound, per cent of control",[2],18%
same,"kinase still bound, per cent of control",[3],6.5%
same,"kinase still bound, per cent of control",[4],0.35%
same,"kinase still bound, per cent of control",[5],25%
same,"kinase still bound, per cent of control",GAK (human),2%
same,"kinase still bound, per cent of control",MYLK4 (human),5.8%
same,"kinase still bound, per cent of control",DCLK2 (human),17%
same,"kinase still bound, per cent of control",[6],15%
same,"kinase still bound, per cent of control",MAPK7 (human),30%
same,"kinase still bound, per cent of control",FRK (human),26%
same,"kinase still bound, per cent of control",ALK (human),30%
same,"kinase still bound, per cent of control",PHKG1 (human),9.2%
same,"kinase still bound, per cent of control",CAMK2G (human),25%
same,"kinase still bound, per cent of control",FLT3 (human),13%
same,"kinase still bound, per cent of control",MKNK2 (human),0.8%
same,"kinase still bound, per cent of control",[7],2%
same,"kinase still bound, per cent of control",CAMK2D (human),7.7%
same,"kinase still bound, per cent of control",PTK6 (human),13%
same,"kinase still bound, per cent of control",DCLK1 (human),5.4%
same,"kinase still bound, per cent of control",TTK (human),1%
same,"kinase still bound, per cent of control",CLK4 (human),20%
COc1cc(N2CCC(N3CCN(C)CC3)CC2)ccc1Nc1ncc2c(n1)N(C1CCCC1)C(C)CC(=O)N2 (centres undefined),"kinase still bound, per cent of control",STK10 (human),19%
same,"kinase still bound, per cent of control",PTK2B (human),23%
same,"kinase still bound, per cent of control",PTK2 (human),7.1%
same,"kinase still bound, per cent of control",TNK2 (human),11%
same,"kinase still bound, per cent of control",RPS6KA6 KD2 (human),12%
same,"kinase still bound, per cent of control",[8],33%
same,"kinase still bound, per cent of control",[9],32%
same,"kinase still bound, per cent of control",[5],29%
same,"kinase still bound, per cent of control",DAPK3 (human),28%
same,"kinase still bound, per cent of control",GAK (human),1.2%
same,"kinase still bound, per cent of control",[10],30%
same,"kinase still bound, per cent of control",FRK (human),16%
same,"kinase still bound, per cent of control",SLK (human),7.2%
same,"kinase still bound, per cent of control",SIK1 (human),27%
same,"kinase still bound, per cent of control",TTK (human),12%
same,"kinase still bound, per cent of control",[11],32%
same,"kinase still bound, per cent of control",PLK1 (human),0%
same,"kinase still bound, per cent of control",PLK3 (human),26%
NS(=O)(=O)c1ccc(-c2ccc(/C=C3/C(=O)NN(c4ccccc4)C3=O)o2)cc1,"kinase still bound, per cent of control",STK10 (human),27%
same,"kinase still bound, per cent of control",PDGFRB (human),33%
same,"kinase still bound, per cent of control",[12],29%
same,"kinase still bound, per cent of control",KIT (human),25%
same,"kinase still bound, per cent of control",TIE1 (human),25%
same,"kinase still bound, per cent of control",DDR1 (human),34%
